Source: ChEMBL document CHEMBL5678818, “Discovery of potent SOS1 inhibitors that block RAS activation via disruption of the RAS-SOS1 interaction” (Proc Natl Acad Sci U S A, 2019)

Legend:
[1] = molecular target: T1, Mitogen-activated protein kinase kinase kinase kinase 3 (Homo sapiens) (UniProt Q8IVH8); assay: Inhibition of MAP4K3 (unknown origin) assessed as residual activity at 1000 nM by KINOMEscan analysis relative to control
T1 sequence (whole entry): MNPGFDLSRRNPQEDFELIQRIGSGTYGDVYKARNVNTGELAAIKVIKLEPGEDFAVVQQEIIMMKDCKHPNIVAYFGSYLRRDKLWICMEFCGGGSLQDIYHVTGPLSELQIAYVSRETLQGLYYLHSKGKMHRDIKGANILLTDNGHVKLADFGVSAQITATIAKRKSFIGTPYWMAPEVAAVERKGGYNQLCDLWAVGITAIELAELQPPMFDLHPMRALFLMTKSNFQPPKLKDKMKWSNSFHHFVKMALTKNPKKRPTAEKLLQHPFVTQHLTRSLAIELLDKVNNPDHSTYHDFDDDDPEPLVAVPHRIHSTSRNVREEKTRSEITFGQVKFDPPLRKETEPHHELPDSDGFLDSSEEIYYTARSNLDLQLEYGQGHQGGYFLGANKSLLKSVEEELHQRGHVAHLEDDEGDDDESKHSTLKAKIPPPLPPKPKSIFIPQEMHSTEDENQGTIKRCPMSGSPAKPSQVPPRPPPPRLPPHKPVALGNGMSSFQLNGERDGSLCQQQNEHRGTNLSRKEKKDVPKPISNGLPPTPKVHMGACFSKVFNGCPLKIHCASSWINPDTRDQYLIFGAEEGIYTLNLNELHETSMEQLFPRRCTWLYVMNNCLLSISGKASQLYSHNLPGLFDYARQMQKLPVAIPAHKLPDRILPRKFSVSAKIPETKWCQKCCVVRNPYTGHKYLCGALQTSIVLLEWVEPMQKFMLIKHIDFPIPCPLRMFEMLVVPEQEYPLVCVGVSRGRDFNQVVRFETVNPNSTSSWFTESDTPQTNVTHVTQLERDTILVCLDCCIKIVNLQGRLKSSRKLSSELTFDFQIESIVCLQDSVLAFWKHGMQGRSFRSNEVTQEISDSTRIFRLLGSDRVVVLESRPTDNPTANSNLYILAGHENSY

[2] = molecular target: Cyclin-dependent kinase-like 3 (Homo sapiens) (UniProt Q8IVW4); assay: Inhibition of CDKL3 (unknown origin) assessed as residual activity at 1000 nM by KINOMEscan analysis relative to control
[3] = molecular target: T2, Serine/threonine-protein kinase TAO1 (Homo sapiens) (UniProt Q7L7X3); assay: Inhibition of TAOK1 (unknown origin) assessed as residual activity at 1000 nM by KINOMEscan analysis relative to control
T2 sequence (whole entry): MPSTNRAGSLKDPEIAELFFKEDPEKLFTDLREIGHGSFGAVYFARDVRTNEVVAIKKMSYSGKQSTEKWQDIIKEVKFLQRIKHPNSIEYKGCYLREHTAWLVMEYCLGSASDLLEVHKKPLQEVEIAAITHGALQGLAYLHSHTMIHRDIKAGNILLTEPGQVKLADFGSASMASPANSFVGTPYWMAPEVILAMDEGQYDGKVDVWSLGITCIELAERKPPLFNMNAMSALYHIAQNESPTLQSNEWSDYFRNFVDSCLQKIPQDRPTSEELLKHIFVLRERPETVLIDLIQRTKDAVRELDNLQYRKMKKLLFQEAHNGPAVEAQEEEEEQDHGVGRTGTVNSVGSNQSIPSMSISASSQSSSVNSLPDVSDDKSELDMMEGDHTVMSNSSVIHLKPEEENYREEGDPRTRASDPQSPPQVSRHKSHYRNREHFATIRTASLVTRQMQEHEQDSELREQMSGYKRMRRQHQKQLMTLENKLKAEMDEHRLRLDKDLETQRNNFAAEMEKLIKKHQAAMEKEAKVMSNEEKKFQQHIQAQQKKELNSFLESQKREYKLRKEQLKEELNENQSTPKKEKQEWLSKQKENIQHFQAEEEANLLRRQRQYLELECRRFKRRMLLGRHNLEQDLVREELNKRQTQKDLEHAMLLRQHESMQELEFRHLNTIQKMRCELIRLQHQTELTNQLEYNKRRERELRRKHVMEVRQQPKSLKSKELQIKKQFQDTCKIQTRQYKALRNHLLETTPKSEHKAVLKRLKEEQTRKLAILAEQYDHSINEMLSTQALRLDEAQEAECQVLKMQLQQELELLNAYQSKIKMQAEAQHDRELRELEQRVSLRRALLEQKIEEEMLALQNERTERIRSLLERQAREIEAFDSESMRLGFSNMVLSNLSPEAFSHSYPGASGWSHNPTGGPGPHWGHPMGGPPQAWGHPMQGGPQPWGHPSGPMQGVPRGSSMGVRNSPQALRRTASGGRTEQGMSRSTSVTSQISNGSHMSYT

[4] = molecular target: Serine/threonine-protein kinase NIM1 (Homo sapiens) (UniProt Q8IY84); assay: Inhibition of NIM1 (unknown origin) assessed as residual activity at 1000 nM by KINOMEscan analysis relative to control
[5] = molecular target: Serine/threonine-protein kinase Nek7 (Homo sapiens) (UniProt Q8TDX7); assay: Inhibition of NEK7 (unknown origin) assessed as residual activity at 1000 nM by KINOMEscan analysis relative to control
[6] = molecular target: ALK tyrosine kinase receptor (Homo sapiens) (UniProt Q9UM73); assay: Inhibition of ALK (unknown origin) assessed as residual activity at 1000 nM by KINOMEscan analysis relative to control
[7] = molecular target: Calcium/calmodulin-dependent protein kinase kinase 1 (Homo sapiens) (UniProt Q8N5S9); assay: Inhibition of CAMKK1 (unknown origin) assessed as residual activity at 1000 nM by KINOMEscan analysis relative to control
[8] = molecular target: T3, Membrane-associated tyrosine- and threonine-specific cdc2-inhibitory kinase (Homo sapiens) (UniProt Q99640); assay: Inhibition of PKMYT1 (unknown origin) assessed as residual activity at 1000 nM by KINOMEscan analysis relative to control
T3 sequence (whole entry): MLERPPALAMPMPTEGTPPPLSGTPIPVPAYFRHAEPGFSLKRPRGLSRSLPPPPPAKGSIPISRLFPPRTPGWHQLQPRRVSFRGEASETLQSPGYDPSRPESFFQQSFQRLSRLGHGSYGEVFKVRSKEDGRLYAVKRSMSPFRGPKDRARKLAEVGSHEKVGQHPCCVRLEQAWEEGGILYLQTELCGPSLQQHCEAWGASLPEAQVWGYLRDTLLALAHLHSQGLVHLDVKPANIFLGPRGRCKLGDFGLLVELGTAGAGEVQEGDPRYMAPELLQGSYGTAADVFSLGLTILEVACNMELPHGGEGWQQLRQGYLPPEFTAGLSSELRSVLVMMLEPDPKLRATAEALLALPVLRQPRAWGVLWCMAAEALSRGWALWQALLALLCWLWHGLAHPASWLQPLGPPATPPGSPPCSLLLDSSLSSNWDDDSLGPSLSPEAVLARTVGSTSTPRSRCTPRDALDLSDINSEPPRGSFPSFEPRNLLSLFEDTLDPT

Sequence of Serine/threonine-protein kinase Nek7 (Homo sapiens) (Q8TDX7 whole entry, looked up): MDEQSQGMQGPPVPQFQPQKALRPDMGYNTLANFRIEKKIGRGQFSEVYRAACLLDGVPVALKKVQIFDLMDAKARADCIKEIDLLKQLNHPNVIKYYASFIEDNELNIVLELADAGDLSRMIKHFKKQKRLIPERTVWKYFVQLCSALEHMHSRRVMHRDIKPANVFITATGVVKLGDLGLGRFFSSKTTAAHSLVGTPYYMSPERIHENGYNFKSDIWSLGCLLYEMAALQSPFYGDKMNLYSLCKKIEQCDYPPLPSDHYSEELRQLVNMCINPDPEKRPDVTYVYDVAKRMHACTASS
Sequence of Cyclin-dependent kinase-like 3 (Homo sapiens) (Q8IVW4 whole entry, looked up): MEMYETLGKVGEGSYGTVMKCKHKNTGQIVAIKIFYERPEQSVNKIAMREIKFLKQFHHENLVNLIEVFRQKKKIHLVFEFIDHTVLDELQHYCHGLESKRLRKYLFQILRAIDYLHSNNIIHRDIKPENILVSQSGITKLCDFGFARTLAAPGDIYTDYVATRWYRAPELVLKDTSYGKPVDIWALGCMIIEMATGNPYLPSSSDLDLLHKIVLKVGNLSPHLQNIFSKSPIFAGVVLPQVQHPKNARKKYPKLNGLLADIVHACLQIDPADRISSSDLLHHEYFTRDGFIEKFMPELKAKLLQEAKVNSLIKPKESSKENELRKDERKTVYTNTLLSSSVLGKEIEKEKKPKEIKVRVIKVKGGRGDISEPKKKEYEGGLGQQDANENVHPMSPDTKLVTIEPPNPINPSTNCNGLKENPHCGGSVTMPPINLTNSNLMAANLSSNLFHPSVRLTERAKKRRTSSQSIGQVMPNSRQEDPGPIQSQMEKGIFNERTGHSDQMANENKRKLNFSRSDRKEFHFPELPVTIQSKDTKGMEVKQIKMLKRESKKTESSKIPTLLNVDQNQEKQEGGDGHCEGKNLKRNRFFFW
Sequence of Calcium/calmodulin-dependent protein kinase kinase 1 (Homo sapiens) (Q8N5S9 whole entry, looked up): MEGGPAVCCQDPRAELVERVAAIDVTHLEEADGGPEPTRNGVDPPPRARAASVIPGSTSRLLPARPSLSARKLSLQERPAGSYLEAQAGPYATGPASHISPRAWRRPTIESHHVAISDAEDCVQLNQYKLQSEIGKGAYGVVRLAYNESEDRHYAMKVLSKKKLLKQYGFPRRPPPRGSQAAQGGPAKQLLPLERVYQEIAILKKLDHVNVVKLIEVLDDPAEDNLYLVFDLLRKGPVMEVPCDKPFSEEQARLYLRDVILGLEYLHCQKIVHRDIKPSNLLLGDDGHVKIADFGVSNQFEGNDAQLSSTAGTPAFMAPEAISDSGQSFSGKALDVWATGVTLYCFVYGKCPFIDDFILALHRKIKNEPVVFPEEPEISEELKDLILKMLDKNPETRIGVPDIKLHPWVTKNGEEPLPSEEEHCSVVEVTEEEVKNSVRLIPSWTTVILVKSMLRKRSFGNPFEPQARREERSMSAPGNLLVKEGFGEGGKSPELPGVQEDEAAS
Sequence of Serine/threonine-protein kinase NIM1 (Homo sapiens) (Q8IY84 whole entry): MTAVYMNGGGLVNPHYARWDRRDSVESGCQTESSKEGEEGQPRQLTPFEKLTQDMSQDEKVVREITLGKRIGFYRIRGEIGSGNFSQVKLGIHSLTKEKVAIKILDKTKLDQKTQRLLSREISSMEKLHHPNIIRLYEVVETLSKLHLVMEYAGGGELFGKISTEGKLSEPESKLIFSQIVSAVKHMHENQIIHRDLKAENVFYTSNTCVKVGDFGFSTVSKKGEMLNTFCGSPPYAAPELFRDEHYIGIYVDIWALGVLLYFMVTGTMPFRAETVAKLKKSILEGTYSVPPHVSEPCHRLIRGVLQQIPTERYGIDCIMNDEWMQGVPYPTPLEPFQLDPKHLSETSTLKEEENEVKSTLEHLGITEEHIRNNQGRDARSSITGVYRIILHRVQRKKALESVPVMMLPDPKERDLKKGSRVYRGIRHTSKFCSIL
Sequence of ALK tyrosine kinase receptor (Homo sapiens) (Q9UM73 19-1620 limits assumed): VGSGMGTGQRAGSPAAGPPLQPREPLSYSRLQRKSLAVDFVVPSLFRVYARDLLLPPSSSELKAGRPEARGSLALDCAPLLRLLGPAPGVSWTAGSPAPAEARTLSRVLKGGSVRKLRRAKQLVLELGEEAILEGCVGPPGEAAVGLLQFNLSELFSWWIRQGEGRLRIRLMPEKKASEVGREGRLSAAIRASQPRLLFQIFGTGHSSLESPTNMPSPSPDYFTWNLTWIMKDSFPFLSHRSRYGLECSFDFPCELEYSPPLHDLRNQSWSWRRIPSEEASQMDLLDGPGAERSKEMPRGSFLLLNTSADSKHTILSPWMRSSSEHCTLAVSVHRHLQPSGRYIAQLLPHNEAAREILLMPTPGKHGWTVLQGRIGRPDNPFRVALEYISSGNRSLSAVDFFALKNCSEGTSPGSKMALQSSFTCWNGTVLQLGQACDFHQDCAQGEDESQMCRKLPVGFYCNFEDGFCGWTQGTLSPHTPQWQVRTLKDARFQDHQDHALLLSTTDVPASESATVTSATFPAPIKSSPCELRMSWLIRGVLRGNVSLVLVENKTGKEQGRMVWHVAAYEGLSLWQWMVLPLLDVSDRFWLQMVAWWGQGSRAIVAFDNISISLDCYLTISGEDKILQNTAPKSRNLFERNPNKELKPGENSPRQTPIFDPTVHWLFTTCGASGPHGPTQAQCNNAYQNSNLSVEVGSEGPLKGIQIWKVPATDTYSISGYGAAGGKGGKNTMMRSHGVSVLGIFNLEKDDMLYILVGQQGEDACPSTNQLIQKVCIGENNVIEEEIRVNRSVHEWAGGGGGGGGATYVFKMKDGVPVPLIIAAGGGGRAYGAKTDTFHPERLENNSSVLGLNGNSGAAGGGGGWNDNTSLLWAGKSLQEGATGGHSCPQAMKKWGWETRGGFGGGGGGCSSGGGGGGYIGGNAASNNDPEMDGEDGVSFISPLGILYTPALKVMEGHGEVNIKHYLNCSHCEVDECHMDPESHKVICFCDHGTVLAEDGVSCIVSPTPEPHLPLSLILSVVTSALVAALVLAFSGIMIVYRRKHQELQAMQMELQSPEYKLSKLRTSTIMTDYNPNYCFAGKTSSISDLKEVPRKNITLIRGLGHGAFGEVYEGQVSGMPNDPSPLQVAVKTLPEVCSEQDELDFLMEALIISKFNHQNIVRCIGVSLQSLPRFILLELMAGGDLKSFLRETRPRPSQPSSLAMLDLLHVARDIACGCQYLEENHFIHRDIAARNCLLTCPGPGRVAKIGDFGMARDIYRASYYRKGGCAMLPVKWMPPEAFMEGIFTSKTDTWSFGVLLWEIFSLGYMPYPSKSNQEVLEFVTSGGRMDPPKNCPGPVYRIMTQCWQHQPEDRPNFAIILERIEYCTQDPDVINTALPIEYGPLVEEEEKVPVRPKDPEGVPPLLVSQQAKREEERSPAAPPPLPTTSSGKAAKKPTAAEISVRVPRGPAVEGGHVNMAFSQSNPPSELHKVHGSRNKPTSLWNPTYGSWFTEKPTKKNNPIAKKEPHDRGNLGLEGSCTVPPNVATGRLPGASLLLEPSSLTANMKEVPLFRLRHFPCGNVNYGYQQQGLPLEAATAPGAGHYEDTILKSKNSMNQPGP

| SMILES | Activity [1] | Activity [2] | Activity [3] | Activity [4] | Activity [5] | Activity [6] | Activity [7] | Activity [8] |
| --- | --- | --- | --- | --- | --- | --- | --- | --- |
| COc1cc2nc(C)nc(N[C@H](C)c3cccc(-c4cn[nH]c4)c3)c2cc1OC | 90% | 87% | 100% | 88% | 89% | 100% | 73% | 53% |
| COc1cc2ncnc(N[C@H](C)c3cccc4ccccc34)c2cc1OC | 100% | 84% | 89% | 78% | 100% | 85% | 97% | 100% |
